Experimental data taken from patent publication US20110092517A1, “Use of PPAR Delta Ligands for the Treatment or Prevention of Inflammation or Energy Metabolism/Production Related Diseases” (Cerenis Therapeutics S.A. & Nippon Chemiphar Co., Ltd., priority 2009, published 2011).
“And” between values parts separate entries of the source, which are not always exact repeats. Identical values can stand only once. Like-named read-outs stand apart in the source and are kept apart here.

Experiments:
rat PPARγ = target: T1, rat PPARγ (Rattus norvegicus, UniProt O88275); assay: GAL4-PPAR chimera transactivation assay in CV-1 cells at 10% or 0.1% serum (Example 4); format: cell-based; settings: read-out: GAL4-chimera (rat) EC50 (μM) hPPARγ
T1 construct: expressed in transfected cells; host or cells: CV-1
T1 sequence (O88275 238-503 limits assumed): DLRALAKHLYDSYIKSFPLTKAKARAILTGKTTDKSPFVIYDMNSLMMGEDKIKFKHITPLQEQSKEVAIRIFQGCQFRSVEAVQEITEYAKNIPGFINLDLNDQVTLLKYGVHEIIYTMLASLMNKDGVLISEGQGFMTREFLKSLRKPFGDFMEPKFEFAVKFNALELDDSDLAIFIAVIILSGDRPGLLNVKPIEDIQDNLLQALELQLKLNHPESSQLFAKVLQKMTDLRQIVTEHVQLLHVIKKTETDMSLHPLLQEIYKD

mouse PPARγ = target: T2, mouse PPARγ (Mus musculus, UniProt P37238); assay: as above; format: cell-based; settings: read-out: GAL4-chimera (mouse) EC50 (μM) hPPARγ
T2 construct: amino acids 204-505 for m and mm from PPARγ; expressed in transfected cells; host or cells: CV-1
T2 sequence (P37238 204-505): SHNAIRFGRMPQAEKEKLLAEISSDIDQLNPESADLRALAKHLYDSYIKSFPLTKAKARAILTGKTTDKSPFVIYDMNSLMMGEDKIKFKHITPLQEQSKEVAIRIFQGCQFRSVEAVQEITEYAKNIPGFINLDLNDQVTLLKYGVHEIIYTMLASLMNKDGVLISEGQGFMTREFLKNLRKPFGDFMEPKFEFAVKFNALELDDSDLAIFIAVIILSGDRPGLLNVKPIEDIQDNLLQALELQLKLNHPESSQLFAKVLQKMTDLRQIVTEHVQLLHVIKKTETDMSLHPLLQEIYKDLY

rat PPARα = target: T3, rat PPARα (Rattus norvegicus, UniProt P37230); assay: as above; format: cell-based; settings: read-out: GAL4-chimera (rat) EC50 (μM) hPPARα
T3 construct: expressed in transfected cells; host or cells: CV-1
T3 sequence (P37230 239-466 limits assumed): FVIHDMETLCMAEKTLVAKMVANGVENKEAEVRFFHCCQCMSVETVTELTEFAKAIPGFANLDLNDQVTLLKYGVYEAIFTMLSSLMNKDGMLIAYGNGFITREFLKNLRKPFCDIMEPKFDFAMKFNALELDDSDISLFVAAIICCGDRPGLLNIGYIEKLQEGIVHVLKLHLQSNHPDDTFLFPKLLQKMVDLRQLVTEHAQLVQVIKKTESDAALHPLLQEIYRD

[1] = Plasma biochemistry after 17 days of treatment in WD fed rats (glycemia, insulin, HOMA-IR, adiponectin, FFA, TG); format: in vivo, rat
TNF-α = TNF-α content in liver and epididymal white adipose tissue after 5 weeks of treatment in WD fed rats (ELISA); format: in vivo, rat; settings: metformin 50, GW501516 10, compound I.1 10 mg/kg (alone or +metformin 50 mg/kg)
Protocol: At the end of the clamp procedure (9.5 hours fasting), perirenal, retroperitoneal, epididymal and inguinal fat pads and liver weights were recorded. Blood was collected from cardiac puncture and plasmas were stored at −80° C. for further assays if needed (depending on the radioactive state of samples). Liver triglyceride content was assessed (enzymatic-colorimetric method) as well as liver and adipose tissue TNF-α content (ELISA method).

rat PPARδ = target: T4, rat PPARδ (Rattus norvegicus, UniProt Q62879); assay: GAL4-PPAR chimera transactivation assay in CV-1 cells at 10% or 0.1% serum (Example 4); format: cell-based; settings: read-out: GAL4-chimera (rat) EC50 (μM) hPPARδ
T4 construct: expressed in transfected cells; host or cells: CV-1
T4 sequence (Q62879 139-440 limits assumed): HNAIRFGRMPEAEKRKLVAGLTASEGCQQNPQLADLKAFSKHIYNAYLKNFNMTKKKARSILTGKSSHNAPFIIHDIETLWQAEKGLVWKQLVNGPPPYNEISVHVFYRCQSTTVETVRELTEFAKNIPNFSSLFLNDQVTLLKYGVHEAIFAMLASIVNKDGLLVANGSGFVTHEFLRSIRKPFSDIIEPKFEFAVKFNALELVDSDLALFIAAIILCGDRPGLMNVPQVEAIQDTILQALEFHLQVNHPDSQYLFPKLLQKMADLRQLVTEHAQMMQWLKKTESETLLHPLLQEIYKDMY
Protocol: Assays were performed in triplicate for GAL4-chimeras. Experiments were repeated at least three times.
The EC50 were calculated as previously described.
The transactivation activities of the compound I.1 and GW501516 are measured in rat and mouse transactivation assays at 10% and 0.1% serum (Tables 11 and 12).

[2] = Oral glucose tolerance test after 3 weeks of treatment in WD fed rats; format: in vivo, rat; settings: 6 h fasted, oral glucose 2.5 g/kg after 3 weeks

- EC50 (rat PPARγ; 0.1% serum): > 10 µM
- EC50 (rat PPARγ; 10% serum): > 10 µM
- EC50 (mouse PPARγ; 0.1% serum): > 10 µM
- EC50 (mouse PPARγ; 10% serum): > 10 µM
- EC50 (rat PPARα; 0.1% serum): > 10 µM
- EC50 (rat PPARα; 10% serum): > 10 µM
- EC50 (rat PPARδ; 0.1% serum): 0.118 ± 0.031 µM
- EC50 (rat PPARδ; 10% serum): 0.692 ± 0.177 µM
SMILES: Cc1cc(C(=O)CCc2sc(-c3ccc(C(F)(F)F)cc3)nc2C(C)C)ccc1OCC(=O)O [compound I.1, 4-[3-[4-Isopropyl-2-[4-(trifluoromethyl)phenyl]-5-thiazolyl]propionyl]-2-methylphenoxyacetic acid]
- Decrease of HOMA-IR ([1]; 4 h fasted, pioglitazone 10, metformin 50, GW501516 10, compound I.1 10 mg/kg): ~25% and 28%
- Plasma adiponectin levels ([1]; pioglitazone 10, metformin 50, GW501516 10, compound I.1 3 and 10 mg/kg): did not prevent a decrease
- Decrease of TNF-α levels in epididymal white adipose tissues (TNF-α): 51%
- Glucose tolerance (OGTT, AUC, glycemia variation) ([2]; compound I.1 3 mg/kg): slight tendency to improve glucose tolerance
- Glucose tolerance (OGTT, AUC, glycemia variation) ([2]; pioglitazone 10, metformin 50, GW501516 10, compound I.1 10 mg/kg): significantly improved glucose tolerance
